According to patent US11186583B2, “5-alkylthio-7-[(4-arylbenzyl)amino]-1(2)H-pyrazolo[4,3-d]pyrimidines for treatment of lymphoma” (UNIVERZITA PALACKEHO V OLOMOUCI, priority 2018, dated 2021):

What was measured:
Format in all cases: cell-based
[1] = tested on: MINO (mantle cell lymphoma); assay: MTT cytotoxicity assay, MINO lymphoma cell line; conditions: Homo sapiens, 72 h, MINO cells, three days, read-out: Lymphoma cell lines GI50, MINO
Excerpt: (§1) Cytotoxicity of the compounds is the major property determining their anti-lymphoma efficacy in vitro. One of the parameters used, as the basis for cytotoxicity assays, is the metabolic activity of viable cells. For example 2, a microtiter assay, which uses (3-(4,5-dimethylthiazol-2-yl)-2,5-diphenyltetrazolium bromide (MTT), is widely used to quantitate cell proliferation and cytotoxicity. This assay is widely used in drug screening programs and in chemosensitivity testing. Because only metabolically active living cells reduce MTT to correspond purple formazan dye, these assays detect viable cells exclusively. The quantity of reduced MTT corresponds to the number of vital cells in the culture.
(§2) The compounds were assayed using the following lymphoma cell lines: HT (diffuse large B-cell lymphoma, subtype—germinal center B-cell), OCI-LY2 (diffuse large B-cell lymphoma, subtype—germinal center B-cell), MINO (mantle cell lymphoma). All cell lines were grown in RPMI medium supplemented with fetal bovine serum and glutamine and maintained at 37° C. in a humidified atmosphere with 5% CO2. For cytotoxicity assays, 5000-10000 cells were seeded into each well of 96 well plate, allowed to stabilize for at least 8 h and then tested compounds were added at various concentrations ranging from 100 to 0.01 μM in triplicates. After three days, MTT solution (5 mg/ml; Sigma, St. Louis, USA) was added to cells and medium was replaced with DMSO after five hours. The absorbance was measured at 620 nm by employing a microplate reader. MTT assays were repeated 3 times for each drug application and untreated cells were used as reference. The GI50 values, drug concentrations lethal to 50% of the cells, were calculated from the obtained dose response curves.

[2] = tested on: OCI-LY2 (diffuse large B-cell lymphoma, subtype—germinal center B-cell); assay: MTT cytotoxicity assay, OCI-LY2 lymphoma cell line; conditions: 72 h, OCI-LY2 cells, three days, read-out: Lymphoma cell lines GI50, OCI-LY2
Excerpt: as §1, §2

[3] = tested on: HT (diffuse large B-cell lymphoma, subtype—germinal center B-cell); assay: MTT cytotoxicity assay, HT lymphoma cell line; conditions: Homo sapiens, 72 h, HT cells, three days, read-out: Lymphoma cell lines GI50, HT
Excerpt: as §1, §2

`CC(C)c1n[nH]c2c(NCc3ccc(-c4ccccn4)cc3)nc(SCC(O)CN3CCOCC3)nc12` (stereo not drawn) [Compound 4.24] gave a GI50 [1] of 243 nM, a GI50 [2] of 200 nM and a GI50 [3] of 200 nM.
With `C=CCSc1nc(NCc2ccc(-c3ccccn3)cc2)c2[nH]nc(C(C)C)c2n1` [Compound 4.2, 5-(Prop-2-en-1-yl)thio-3-isopropyl-7-[4-(2-pyridyl)benzyl]amino-1(2)H-pyrazolo[4,3-d]pyrimidine] the GI50 [1] was 923 nM, the GI50 [2] was 858 nM and the GI50 [3] was 1000 nM.
With `CCC(CO)Sc1nc(NCc2ccc(-c3ccccn3)cc2)c2[nH]nc(C(C)C)c2n1` (stereo not drawn) [Compound 4.5, 5-(1-Hydroxy-2-butyl)thio-3-isopropyl-7-[4-(2-pyridyl)benzyl]amino-1(2)H-pyrazolo[4,3-d]pyrimidin] the GI50 [1] was 119 nM, the GI50 [2] was 181 nM and the GI50 [3] was 255 nM.
With `COCSc1nc(NCc2ccc(-c3ccccn3)cc2)c2[nH]nc(C(C)C)c2n1` [Compound 4.33, 5-(Methoxymethyl)thio-3-isopropyl-7-[4-(2-pyridyl)benzyl]amino-1(2)H-pyrazolo[4,3-d]pyrimidine] the GI50 [1] was 243 nM, the GI50 [2] was 285 nM and the GI50 [3] was 340 nM.
`CC(C)c1n[nH]c2c(NCc3ccc(-c4ccccn4)cc3)nc(SC(CO)C(C)C)nc12` (stereo not drawn) [Compound 4.21, 5-(1-Hydroxy-3-methyl-2-butyl)thio-3-isopropyl-7-[4-(2-pyridyl)benzyl]amino-1(2)H-pyrazolo[4,3-d]pyrimidine] was tested, and the GI50 [1] was 1310 nM, the GI50 [2] was 1000 nM and the GI50 [3] was 980 nM.
`CC(C)c1n[nH]c2c(NCc3ccc(-c4ccccn4)cc3)nc(SCCCO)nc12` [Compound 4.8, 5-(3-Hydroxy-1-propyl)thio-3-isopropyl-7-[4-(2-pyridyl)benzyl]amino-1(2)H-pyrazolo[4,3-d]pyrimidine] gave a GI50 [1] of 89 nM, a GI50 [2] of 102 nM and a GI50 [3] of 109 nM.
Compound `CC(C)c1n[nH]c2c(NCc3ccc(-c4ccccn4)cc3)nc(SCC(O)CN3CCNCC3)nc12` (stereo not drawn) [Compound 4.25, 5-[3-(1-Piperazinyl)-2-hydroxy-1-propyl]thio-3-isopropyl-7-[4-(2-pyridyl)benzyl]amino-1(2)H-pyrazolo[4,3-d]pyrimidine] has a GI50 [1] of 767 nM, a GI50 [2] of 435 nM and a GI50 [3] of 332 nM.
`CC(C)c1n[nH]c2c(NCc3ccc(-c4ccccn4)cc3)nc(SCCCN)nc12` [Compound 4.27, 5-(3-Amino-1-propyl)thio-3-isopropyl-7-[4-(2-pyridyl)benzyl]amino-1(2)H-pyrazolo[4,3-d]pyrimidine] was tested, and the GI50 [1] was 156 nM, the GI50 [2] was 151 nM and the GI50 [3] was 120 nM.
`CC(C)c1n[nH]c2c(NCc3ccc(-c4ccccn4)cc3)nc(SCC(N)=O)nc12` [Compound 4.7, 5-(Carbamoylmethyl)thio-3-isopropyl-7-[4-(2-pyridyl)benzyl]amino-1(2)H-pyrazolo[4,3-d]pyrimidine] showed a GI50 [1] of 197 nM, a GI50 [2] of 163 nM and a GI50 [3] of 192 nM.
Work on `CC(C)c1n[nH]c2c(NCc3ccc(-c4ccccn4)cc3)nc(SCCC(N)=O)nc12` [Compound 4.6, 5-(2-Carbamoyl-1-ethyl)thio-3-isopropyl-7-[4-(2-pyridyl)benzyl]amino-1(2)H-pyrazolo[4,3-d]pyrimidine] yielded a GI50 [1] of 81 nM, a GI50 [2] of 84 nM and a GI50 [3] of 120 nM.
`CC(C)c1n[nH]c2c(NCc3ccc(-c4ccccn4)cc3)nc(SCC(O)CO)nc12` (stereo not drawn) [Compound 4.18, 5-(2,3-Dihydroxy-1-propyl)thio-3-isopropyl-7-[4-(2-pyridyl)benzyl]amino-1(2)H-pyrazolo[4,3-d]pyrimidine] gave a GI50 [1] of 10 nM, a GI50 [2] of 22 nM and a GI50 [3] of 21 nM.
Compound `CC(C)c1n[nH]c2c(NCc3ccc(-c4ccccn4)cc3)nc(SCCNC(=N)N)nc12` [Compound 4.10, 5-(2-Guanidino-1-ethyl)thio-3-isopropyl-7-[4-(2-pyridyl)benzyl]amino-1(2)H-pyrazolo[4,3-d]pyrimidine] has a GI50 [1] of 390 nM, a GI50 [2] of 812 nM and a GI50 [3] of 390 nM.
`CC(C)c1n[nH]c2c(NCc3ccc(-c4ccccn4)cc3)nc(SC3CCCC3O)nc12` (stereo not drawn) [Compound 4.16, 5-(2-Hydroxycyclopentyl)thio-3-isopropyl-7-[4-(2-pyridyl)benzyl]amino-1(2)H-pyrazolo[4,3-d]pyrimidine] gave a GI50 [1] of 450 nM, a GI50 [2] of 373 nM and a GI50 [3] of 567 nM.
Compound `CNCCSc1nc(NCc2ccc(-c3ccccn3)cc2)c2[nH]nc(C(C)C)c2n1` [Compound 4.34, 5-(3-Methylamino-1-ethyl)thio-3-isopropyl-7-[4-(2-pyridyl)benzyl]amino-1(2)H-pyrazolo[4,3-d]pyrimidine] has a GI50 [1] of 40 nM, a GI50 [2] of 92 nM and a GI50 [3] of 56 nM.
`CC(C)c1n[nH]c2c(NCc3ccc(-c4ccccn4)cc3)nc(SCC(O)C(F)(F)F)nc12` (stereo not drawn) [Compound 4.32, 5-(3,3,3-Trifluoro-2-hydroxy-1-propyl)thio-3-isopropyl-7-[4-(2-pyridyl)benzyl]amino-1(2)H-pyrazolo[4,3-d]pyrimidine] showed a GI50 [1] of 641 nM, a GI50 [2] of 585 nM and a GI50 [3] of 690 nM.
`CC(=O)NCCSc1nc(NCc2ccc(-c3ccccn3)cc2)c2[nH]nc(C(C)C)c2n1` [Compound 4.12, 5-(2-Acetylamino-1-ethyl)thio-3-isopropyl-7-[4-(2-pyridyl)benzyl]amino-1(2)H-pyrazolo[4,3-d]pyrimidine] gave a GI50 [1] of 42 nM, a GI50 [2] of 54 nM and a GI50 [3] of 71 nM.
With `CSCCSc1nc(NCc2ccc(-c3ccccn3)cc2)c2[nH]nc(C(C)C)c2n1` [Compound 4.30, 5-(2-Methylthio-1-ethyl)thio-3-isopropyl-7-[4-(2-pyridyl)benzyl]amino-1(2)H-pyrazolo[4,3-d]pyrimidine] the GI50 [1] was 773 nM, the GI50 [2] was 668 nM and the GI50 [3] was 975 nM.
`CCC(O)CSc1nc(NCc2ccc(-c3ccccn3)cc2)c2[nH]nc(C(C)C)c2n1` (stereo not drawn) [Compound 4.15, 5-(2-Hydroxy-1-butyl)thio-3-isopropyl-7-[4-(2-pyridyl)benzyl]amino-1(2)H-pyrazolo[4,3-d]pyrimidine] gave a GI50 [1] of 427 nM, a GI50 [2] of 280 nM and a GI50 [3] of 273 nM.
For `CC(C)c1n[nH]c2c(NCc3ccc(-c4ccccn4)cc3)nc(SCCN(C)C)nc12` [Compound 4.19], the GI50 [1] was 93 nM, the GI50 [2] was 61 nM and the GI50 [3] was 54 nM.
For `CC(C)c1n[nH]c2c(NCc3ccc(-c4ccccn4)cc3)nc(SC3CCCCC3N)nc12` (stereo not drawn) [Compound 4.31, 5-(2-Aminocyclohexyl)thio-3-isopropyl-7-[4-(2-pyridyl)benzyl]amino-1(2)H-pyrazolo[4,3-d]pyrimidine], the GI50 [1] was 157 nM, the GI50 [2] was 136 nM and the GI50 [3] was 139 nM.
For `CC(C)c1n[nH]c2c(NCc3ccc(-c4ccccn4)cc3)nc(SCC3CNC(=O)O3)nc12` (stereo not drawn) [Compound 4.28, 5-[(Oxazolidin-2-on-5-yl)methyl]thio-3-isopropyl-7-[4-(2-pyridyl)benzyl]amino-1(2)H-pyrazolo[4,3-d]pyrimidine], the GI50 [1] was 69 nM, the GI50 [2] was 53 nM and the GI50 [3] was 80 nM.
`CC(C)c1n[nH]c2c(NCc3ccc(-c4ccccn4)cc3)nc(SCCNC(N)=O)nc12` [Compound 4.11, 5-(2-Ureido-1-ethyl)thio-3-isopropyl-7-[4-(2-pyridyl)benzyl]amino-1(2)H-pyrazolo[4,3-d]pyrimidine] showed a GI50 [1] of 136 nM, a GI50 [2] of 198 nM and a GI50 [3] of 240 nM.
Compound `CC(O)CSc1nc(NCc2ccc(-c3ccccn3)cc2)c2[nH]nc(C(C)C)c2n1` (stereo not drawn) [Compound 4.3, 5-(2-Hydroxy-1-propyl)thio-3-isopropyl-7-[4-(2-pyridyl)benzyl]amino-1(2)H-pyrazolo[4,3-d]pyrimidine] has a GI50 [1] of 81 nM, a GI50 [2] of 152 nM and a GI50 [3] of 62 nM.
For `CC(C)c1n[nH]c2c(NCc3ccc(-c4ccccn4)cc3)nc(SCC(O)CN)nc12` (racemic) [Compound 4.23, 5-(R/S)-(3-Amino-2-hydroxy-1-propyl)thio-3-isopropyl-7-[4-(2-pyridyl)benzyl]amino-1(2)H-pyrazolo[4,3-d]pyrimidine], the GI50 [1] was 64 nM, the GI50 [2] was 55 nM and the GI50 [3] was 55 nM.
`CC(C)c1n[nH]c2c(NCc3ccc(-c4ccccn4)cc3)nc(SCC(C)(C)N)nc12` [Compound 4.13, 5-(2-Amino-2-methyl-1-propyl)thio-3-isopropyl-7-[4-(2-pyridyl)benzyl]amino-1(2)H-pyrazolo[4,3-d]pyrimidin] was tested, and the GI50 [1] was 64 nM, the GI50 [2] was 100 nM and the GI50 [3] was 85 nM.
In the case of `CC(C)c1n[nH]c2c(NCc3ccc(-c4ccccn4)cc3)nc(SCC(N)CN)nc12` (stereo not drawn) [Compound 4.29, 5-(2,3-Diamino-1-propyl)thio-3-isopropyl-7-[4-(2-pyridyl)benzyl]amino-1(2)H-pyrazolo[4,3-d]pyrimidine], the GI50 [1] is reported as 770 nM, the GI50 [2] is reported as 780 nM and the GI50 [3] is reported as 480 nM.
`CC(C)c1n[nH]c2c(NCc3ccc(-c4ccccn4)cc3)nc(SCCCN(C)C)nc12` [Compound 4.20, 5[3-(Dimethylamino)-1-propyl]thio-3-isopropyl-7-[4-(2-pyridyl)benzyl]amino-1(2)H-pyrazolo[4,3-d]pyrimidine] gave a GI50 [1] of 76 nM, a GI50 [2] of 109 nM and a GI50 [3] of 105 nM.
